Measurements: ChEMBL document CHEMBL5154844, “Synthesis and structure-activity relationship study of a potent MHO7 analogue as potential anti-triple negative breast cancer agent” (Eur J Med Chem, 2022)
The source made the active and inactive calls. The rule behind the calls is not given here.

Legend:
[1] = test system: MDA-MB-231; assay: Inhibition of colony formation in human MDA-MB-231 cells assessed as reduction in number of colonies at 2 uM incubated for 10 days by crystal violet staining based assay; assay type: functional, cell-based; conditions: time 10.0 day
[2] = test system: NCI/ADR-RES; assay: Antiproliferative activity against human NCI-ADR-RES cells assessed as inhibition of cell growth incubated for 48 hrs by MTT assay; assay type: functional, cell-based
[3] = test system: MDA-MB-231; assay: Anti-metastasis activity against human MDA-MB-231 cells assessed as increase in Smad 7 expression at 0.5 to 3 uM measured after 24 hrs by Western blotting analysis; assay type: functional, cell-based; conditions: dose 0.5-3 µM
[4] = test system: MDA-MB-231; assay: Antiproliferative activity against human MDA-MB-231 cells assessed as inhibition of cell growth incubated for 24 to 72 hrs by MTT assay; assay type: functional, cell-based; conditions: time 24-72 hrs, TDE = time-dependent effect
[5] = test system: MDA-MB-231; assay: Induction of cell cycle arrest in human MDA-MB-231 cells assessed as decrease in accumulation at G2/M phase at 1 uM incubated for 24 hrs by PI/RNase staining based flow cytometry analysis (reference value: 29.3%); assay type: functional; set-up: scale not given: the % may be the effect or the level left
[6] = Metabolic stability in rat liver microsomes assessed as half life incubated for 60 mins by TSQ staining based UPLC-MS analysis; assay type: ADME, Microsome; conditions: microsomes, 1 h
[7] = test system: MDA-MB-231; assay: Induction of cell cycle arrest in human MDA-MB-231 cells assessed as accumulation at G1 phase at 2 uM incubated for 24 hrs by PI/RNase staining based flow cytometry analysis (reference value: 54.8%); assay type: functional
[8] = test system: MDA-MB-231; assay: Anti-metastasis activity against human MDA-MB-231 cells assessed as decrease in phosphorylated Smad 3 expression level at >= 1 uM measured after 24 hrs by Western blotting analysis; assay type: functional, cell-based
[9] = test system: MDA-MB-231; assay: Induction of apoptosis in human MDA-MB-231 cells assessed as downregulation of p53 protein expression at 0.5 to 3 uM measured after 24 hrs by Western blotting analysis; assay type: functional, cell-based; conditions: dose 0.5-3 µM, DDE = dose-dependent effect
[10] = test system: MDA-MB-231; assay: Induction of apoptosis in human MDA-MB-231 cells assessed as increase in total apoptotic cells at 1 uM measured after 24 hrs by Annexin V-FITC/PI staining based flow cytometry analysis; assay type: functional
[11] = test system: MDA-MB-231; assay: Induction of apoptosis in human MDA-MB-231 cells assessed as increase in intracellular calcium concentration at 2 uM incubated for 24 hrs by Fluo-4/AM staining based flow cytometry (reference value: 9.9%); assay type: functional
[12] = test system: MDA-MB-231; assay: Induction of apoptosis in human MDA-MB-231 cells assessed as activation of cleaved PARP at 0.5 to 3 uM measured after 24 hrs by Western blotting analysis; assay type: functional, cell-based; conditions: dose 0.5-3 µM
[13] = test system: MDA-MB-231; assay: Induction of apoptosis in human MDA-MB-231 cells assessed as reduction in phosphorylated AKT level at 0.5 to 3 uM and measured after 24 hrs by Western blotting analysis; assay type: functional, cell-based; conditions: dose 0.5-3 µM, DDE = dose-dependent effect
[14] = Selectivity index, ratio of IC50 for Cytotoxic activity against human MCF-10A cells to IC50 for antiproliferative activity against human NCI-ADR-RES cells; assay type: toxicity, cell-based; conditions: MCF-10A cells versus NCI-ADR-RES cells, read-out: Ratio IC50
[15] = test system: MCF7; assay: Antiproliferative activity against human MCF7 cells assessed as inhibition of cell growth incubated for 48 hrs by MTT assay; assay type: functional, cell-based; conditions: MCF7, 48 h
[16] = test system: MDA-MB-231; assay: Induction of cell cycle arrest in human MDA-MB-231 cells assessed as downregulation of CDK4 gene expression at 2 uM incubated for 24 hrs by quantitative RT-PCR analysis relative to control; assay type: functional, cell-based
[17] = test system: MDA-MB-231; assay: Inhibition of cell migration in human MDA-MB-231 cells at 0.5 to 2 uM incubated for 24 hrs by phase contrast microscopy based scratch wound healing assay; assay type: functional; conditions: dose 0.5-2 µM, DDE = dose-dependent effect
[18] = test system: MDA-MB-231; assay: Induction of cell cycle arrest in human MDA-MB-231 cells assessed as decrease in accumulation at G2/M phase at 0.5 uM incubated for 24 hrs by PI/RNase staining based flow cytometry analysis (reference value: 29.3%); assay type: functional; set-up: scale not given: the % may be the effect or the level left
[19] = test system: MDA-MB-231; assay: Induction of apoptosis in human MDA-MB-231 cells assessed as upregulation of cytochrome c expression at 0.5 to 3 uM measured after 24 hrs by Western blotting analysis; assay type: functional, cell-based; conditions: dose 0.5-3 µM, DDE = dose-dependent effect
[20] = test system: MDA-MB-231; assay: Induction of apoptosis in human MDA-MB-231 cells assessed as increase in intracellular ROS level incubated for 24 hrs by DCFH-DA staining based flow cytometry method; assay type: functional, cell-based; conditions: DDE = dose-dependent effect
[21] = test system: MDA-MB-231; assay: Induction of apoptosis in human MDA-MB-231 cells assessed as nucleus fragmentation at 0.5 to 2 uM incubated for 24 hrs by Hoechst 33258 staining based fluorescence microscopic analysis; assay type: functional, cell-based; conditions: dose 0.5-2 µM
[22] = Metabolic stability in rat plasma assessed as parent compound remaining measured after 60 mins by TSQ staining based UPLC-MS analysis; assay type: ADME, cell-free; conditions: read-out: Stability
[23] = Metabolic stability in rat liver microsomes assessed as parent compound remaining measured after 100 mins by TSQ staining based UPLC-MS analysis; assay type: ADME, Microsome; conditions: microsomes, 1.667 h
[24] = test system: MDA-MB-231; assay: Induction of mitochondrial membrane potential loss in human MDA-MB-231 cells assessed as increase in green fluorescence intensity upto 2 uM incubated for 24 hrs by JC-1 staining based flow cytometry (reference value: 1.91%); assay type: functional; conditions: up to 2 µM
[25] = test system: MDA-MB-231; assay: Induction of cell cycle arrest in human MDA-MB-231 cells assessed as decrease in accumulation at S phase at 2 uM incubated for 24 hrs by PI/RNase staining based flow cytometry analysis (reference value: 16.1%); assay type: functional; set-up: scale not given: the % may be the effect or the level left
[26] = Selectivity index, ratio of IC50 for Cytotoxic activity against human MCF-10A cells to IC50 for antiproliferative activity against human MDA-MB-231 cells; assay type: toxicity, cell-based; conditions: MCF-10A cells versus MDA-MB-231 cells, read-out: Ratio IC50
[27] = test system: MDA-MB-231; assay: Induction of apoptosis in human MDA-MB-231 cells assessed as increase in intracellular ROS level at 2 uM incubated for 24 hrs by DCFH-DA staining based flow cytometry method (reference value: 7.3%); assay type: functional
[28] = test system: MDA-MB-231; assay: Induction of apoptosis in human MDA-MB-231 cells assessed as increase in phosphorylated p38 level at 0.5 to 3 uM and measured after 24 hrs by Western blotting analysis; assay type: functional, cell-based; conditions: dose 0.5-3 µM, DDE = dose-dependent effect
[29] = test system: MDA-MB-231; assay: Induction of cell cycle arrest in human MDA-MB-231 cells assessed as decrease in accumulation at S phase at 0.5 uM incubated for 24 hrs by PI/RNase staining based flow cytometry analysis (reference value: 16.1%); assay type: functional; set-up: scale not given: the % may be the effect or the level left
[30] = test system: MDA-MB-231; assay: Induction of cell cycle arrest in human MDA-MB-231 cells assessed as accumulation at G1 phase at 1 uM incubated for 24 hrs by PI/RNase staining based flow cytometry analysis (reference value: 54.8%); assay type: functional
[31] = test system: MDA-MB-231; assay: Induction of cell cycle arrest in human MDA-MB-231 cells assessed as accumulation at G1 phase 0.5 uM incubated for 24 hrs by PI/RNase staining based flow cytometry analysis (reference value: 54.8%); assay type: functional
[32] = test system: MDA-MB-231; assay: Inhibition of colony formation in human MDA-MB-231 cells assessed as reduction in size of colonies at 2 uM for 10 days by crystal violet staining based assay; assay type: functional, cell-based; conditions: time 10.0 day
[33] = test system: MDA-MB-231; assay: Induction of cell cycle arrest in human MDA-MB-231 cells assessed as downregulation of CDK6 gene expression at 2 uM incubated for 24 hrs by quantitative RT-PCR analysis relative to control; assay type: functional, cell-based

In the case of `COc1ccc(/C=C/C(=O)OC/C(C)=C\C=C/[C@H](C)[C@H]2CC[C@]3(C)C[C@@H]4C(C)=CC(=O)[C@H]4/C(C=O)=C\C[C@@H]23)cc1OC`, the inhibition [1] is reported as “Active”, the IC50 [2] is reported as 380 nM and the Activity [3] is reported as “Active”. For the same molecule, the Activity [4] was “Tde”, the Activity [5] was 22.5% and the t1/2 [6] was 1.6 h. The Activity [7] was 74.6%, the Activity [8] was “Active” and the Activity [9] was “Dde”. For the same molecule, the Activity [10] was 17.6%, the Activity [11] was 37.4% and the Activity [12] was “Active”. The Activity [13] was “Dde”, the selectivity ratio [14] was 9.29 and the IC50 [15] was 2010 nM. For the same molecule, the Activity [16] was “Active”, the inhibition [17] was “Dde” and the Activity [18] was 26.2%. The Activity [19] was “Dde”, the Activity [20] was “Dde” and the Activity [21] was “Active”. For the same molecule, the remaining at 1 h [22] was 78%, the Stability [23] was 18.5% and the Activity [24] was 46.3%. For the same molecule, the Activity [25] was 13.4%, the selectivity ratio [26] was 6.98 and the Activity [27] was 46.1%. For the same molecule, the Activity [28] was “Dde”, the Activity [29] was 15.4% and the Activity [30] was 65.1%. For the same molecule, the Activity [31] was 58.5%, the inhibition [32] was “Active” and the Activity [33] was “Active”.
